Laboratory results from PMC3766871, “Separacenes A–D, Novel Polyene Polyols from the Marine Actinomycete, Streptomyces sp” (Marine Drugs, 2013).

Columns and labels:
isocitrate lyase (ICL) [1] = biological target: T1, isocitrate lyase (ICL) (Candida albicans, UniProt Q9P8Q7); test: positive control in enzyme assay with purified ICL, glyoxylate phenylhydrazone formation at […] nm; assay type: biochemical
T1 construct: gene ICL1

isocitrate lyase (ICL) [2] = biological target: T1, isocitrate lyase (ICL); test: enzyme assay with purified ICL, glyoxylate phenylhydrazone formation at […] nm; assay type: biochemical

T1 sequence (Q9P8Q7 whole entry): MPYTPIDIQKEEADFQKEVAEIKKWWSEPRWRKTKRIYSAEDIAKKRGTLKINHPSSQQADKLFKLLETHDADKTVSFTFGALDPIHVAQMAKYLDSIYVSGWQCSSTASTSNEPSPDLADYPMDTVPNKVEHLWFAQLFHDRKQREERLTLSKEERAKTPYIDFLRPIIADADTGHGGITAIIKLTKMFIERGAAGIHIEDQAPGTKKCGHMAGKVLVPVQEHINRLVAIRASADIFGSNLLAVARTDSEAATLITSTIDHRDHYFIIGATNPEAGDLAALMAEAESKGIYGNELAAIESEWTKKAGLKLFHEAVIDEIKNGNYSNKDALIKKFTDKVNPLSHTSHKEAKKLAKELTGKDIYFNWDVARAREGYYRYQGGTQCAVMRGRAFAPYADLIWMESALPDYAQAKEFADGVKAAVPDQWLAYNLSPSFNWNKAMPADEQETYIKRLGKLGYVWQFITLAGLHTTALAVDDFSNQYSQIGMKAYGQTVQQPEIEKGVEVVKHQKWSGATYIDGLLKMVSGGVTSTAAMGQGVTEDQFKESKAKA

Structure (SMILES)	IC50 (isocitrate lyase (ICL) [1]) [µM]	IC50 (isocitrate lyase (ICL) [2]) [µM]
O=C(O)CC[N+](=O)[O-] [3-Nitropropionic acid]	11.3	
C=C[C@@H](O)[C@H](O)/C=C/C=C/C=C/C=C/[C@@H](O)[C@@H](C)O [compound 1, Separacene A]		172
